This is an account of results in patent publication US11110075B2, “Use of daphnetin in improving function of aortic endothelial cell” (XI'AN JIAOTONG UNIVERSITY, priority 2019, dated 2021).

For assay [1], the system named is interleukin-6 (IL-6) mRNA. Nature of the assay: IL-6 mRNA level detection by RT-PCR in palmitic acid treated HAECs. It counts as cell-based, human. Particulars: FIG. 2. As for the experimental part:
(§1) Human aortic endothelial cells (HAECs) were purchased from Shanghai Bioleaf Biotech Co., Ltd. Palmitic acid (PA) was purchased from SIGMA Company. A palmitic acid solution having a concentration of 500 μM was prepared by dissolving palmitic acid in water. A cell culture incubator was adopted to culture the cells in a temperature-constant, humidified, sterile condition. The cells were cultured in wells of culture plates at an atmosphere of 95% air and 5% CO2 at 37° C. in the incubator. The experiments were performed on different experimental groups of cells.
The HAECs that were previously cultured in a 12-well cell culture plate were divided into 4 different experimental groups and respectively applied with daphnetin in the respective concentrations, 0 μM, 0 μM, 50 μM, 100 μM, and all followed with an 24-hour incubation. Then, the last 3 groups of cells were respectively applied with 500 μM palmitic acid, the first was not, and all followed with another 24-hour incubation. The detecting of mRNA levels corresponding to interleukin-6 (IL-6) was respectively carried out on each group of cells by using reverse transcription RNA and real-time quantitative polymerase chain reaction (PCR), and the specific method is as follows:
The medium for cell culture in the wells was removed. 500 μL of TRIzol™ reagent was added to each well, and the culture plate was then shaken at room temperature for 5 minutes. Then the cells in the wells were collected and transferred to a 1.5 mL eppendorf (EP) tube. 200 μl (taking […] of total volume of the substance in the EP tube) of chloroform was then added to the EP tube for extraction of […]. The samples were then vigorously stirred for 15 seconds, rested for 15 minutes at room temperature, and then centrifuged at a relative centrifugal force of 12,000 g for 10 minutes at 4° C. […] The concentration of the solution was measured by an ultraviolet spectrophotometer. […]

For assay [2], the system named is mitochondrial membrane fusion related protein Mfn2. As to the kind of experiment: Western blot protein detection of Mfn2 in palmitic acid treated HAECs. It counts as cell-based, human. Particulars: 500 μM palmitic acid 24 h (PA group) vs control group, FIG. 3A, 3B. As for the experimental part: (§2) Human aortic endothelial cells (HAECs) were purchased from Shanghai Bioleaf Biotech Co., Ltd. Palmitic acid (PA) was purchased from SIGMA Company. A palmitic acid solution having a concentration of 500 μM was prepared by dissolving palmitic acid in water. A cell culture incubator was adopted to culture the cells in a temperature-constant, humidified, sterile condition. The cells were cultured in wells of culture plates at an atmosphere of 95% air and 5% CO2 at 37° C. in the incubator. The experiments were performed on different experimental groups of cells. The HAECs that were previously cultured in a 6-well cell culture plate were divided into 3 different experimental groups, the control (Ctrl) group, the PA group, and the DAP+PA group. The cells of the DAP+PA group were applied with daphnetin in a concentration of 100 μM followed with a 24-hour incubation. Then, the cells of both the PA group and the DAP+PA group were applied with 500 μM palmitic acid, all followed with another 24-hour incubation. The protein detection was respectively carried out on each group of cells as follows. The medium for cell culture in the wells was removed. 150 μL of IP lysis buffer was added to each well of the culture plate. […] The supernatants were collected, and the proteins therein were quantified by bicinchoninic acid (BCA) assay, and normalized. […] Target proteins were detected by chemiluminescence.

Assay [3] has as its system mitochondrial membrane fusion related protein Mfn1. As to the kind of experiment: Western blot protein detection of Mfn1 in palmitic acid treated HAECs. As to conditions: FIG. 3A, 3B. The class given is cell-based, human. As for the experimental part: as §2
The subject of assay [4] is human aortic endothelial cells (HAECs). Nature of the assay: MTT assay, viability of HAECs inhibited by palmitic acid. It counts as cell-based. As to conditions: HAECs pretreated with 10 μM daphnetin 24 h, then 500 μM palmitic acid 24 h; vs palmitic acid treated cells without daphnetin; FIG. 1. As for the experimental part: as §1
The HAECs that were previously cultured in a 12-well cell culture plates were divided into 6 different experimental groups and respectively applied with daphnetin in different concentrations, 0 μM, 1 μM, 10 μM, 50 μM, 100 μM, and 200 μM, all followed with an 24-hour incubation. Then, each of the 6 groups of cells was further divided into two subgroups; one was applied with 500 μM palmitic acid, the other was not, and all followed with another 24-hour incubation.
An MTT assay was performed to all groups of cells. […] The absorbance was measured at a wavelength of 490 nm in a spectrophotometer. The absorbance of this colored solution can be quantified by measuring at a certain wavelength (usually between 500 and 600 nm) by a spectrophotometer.
(Formazan colour is commonly taken as a measure of viable cells.)

Turning to `CCCCCCCCCCCCCCCC(=O)O` [palmitic acid], the “increase of mRNA level corresponding to IL-6” value in assay [1] (HAECs, 500 μM palmitic acid 24 h without daphnetin, vs control group) is reported as “about 20 times”. Further, the “expression of Mfn2” value in assay [2] is “reducing the expression”. The “expression of Mfn1” value in assay [3] (500 μM palmitic acid 24 h (PA group) vs control group) is recorded as “reducing the expression”.

Regarding `O=c1ccc2ccc(O)c(O)c2o1` [daphnetin, 7,8-dihydroxycoumarin], the “concentration dependence of inhibition of IL-6 mRNA level” value in assay [1] (HAECs pretreated with 50 μM or 100 μM daphnetin, then 500 μM palmitic acid) is on record as “inhibition effect increases with the concentration”. Further, in assay [1] (HAECs pretreated with 100 μM daphnetin 24 h, then 500 μM palmitic acid 24 h, vs palmitic acid alone), the “mRNA level corresponding to IL-6” value is “significantly decreased”. Also, the relative cell viability entry in assay [4] was “higher viabilities”. In assay [3] (100 μM daphnetin 24 h then 500 μM palmitic acid 24 h (DAP+PA group) vs PA group), the “relative protein expression level of Mfn1” value was “significantly increasing”.
